For one data set, the system named is Wnt signal. The data set is described as follows: Detection of Wnt signal (TOPglow luciferase reporter, LiCl-stimulated). To be noted: Homo sapiens; HEK293 clone carrying pNeo-TOP reporter; LiCl stimulation; luciferase luminescence; read-out: Test Example 1 IC50 (concentration required for inhibiting the Wnt signal activity by 50%). In kind it is cell-based. The procedure: pcDNA3.1(+) (invitrogen) was cleaved with restriction enzymes BglII and NotI, and an adapter BEHKS having a sequence shown below (containing restriction enzyme sites BglII, EcoRI, HindIII, KpnI, SacI and NotI) was inserted thereinto, thereby producing a plasmid pNeo-HKS.
Subsequently, a fragment having a length of about 2700 bp (containing a Wnt-responsive sequence and a luciferase gene), which was prepared by cleaving from a TOPglow plasmid contained in a TOPglow/FOPglow TCF Reporter Kit (upstate Catalog#17-366) with restriction enzymes HindIII and KpnI, was inserted between HindIII and KpnI in pNeo-HKS, thereby producing a plasmid pNeo-TOP. The plasmid pNeo-TOP was introduced into human fetus-derived renal cell strain HEK293, then a compound was selected using G418, and then a cell clone strain was established by a limiting dilution method. The cell clone strain was subjected to a Wnt signal detection test.
The cell clone strain was subcultured in a D-MEM glucose-rich culture medium (Wako Pure Chemical Industries, Ltd.) containing 10% FBS, and cells in a growth phase were used in the test. Cells were collected using trypsin-EDTA, the number of the cells was counted, and then the cells were suspended in a D-MEM glucose-rich culture medium containing 10% FBS so that the number of cells became 2×10^5 cells/mL. The cell suspension was added to a 96-well cell culture plate (Greiner Bio-One Co., Ltd., product number: 655083) in an amount of 0.1 mL/well and then cultured overnight in a 5% CO2 incubator (37° C.). After the culturing, a substance to be tested, which was dissolved in DMSO, was diluted with a D-MEM glucose-rich culture medium containing 10% of FBS and 80 mM of LiCl to produce a sample solution. The sample solution (0.1 mL) was added to each well and then cultured in a 5% CO2 incubator (37° C.) […]. Six hours after the addition of the sample solution, a supernatant was removed from each well, and then 50 μL of Bright-Glo™ Luciferase substrate (Promega, product number: E2620) was added thereto. The plate was put on a plate mixer for several seconds, and then the emission of light from each well was measured using a EnVision™ Multilabel plate reader (PerkinElmer Co., Ltd.). The Wnt signal activation rate (%) of each well was determined, and a concentration (IC50) which is required for inhibiting the Wnt signal activity of a substance of interest by 50% was calculated, wherein the luminosity of a well to which a sample solution was not added and LiCl was added was defined as a 100% Wnt signal activity and the luminosity of a well to which either of a sample solution or LiCl was not added was defined as a 0% Wnt signal activity.

Data set [1] can be described thus: Evaluation of metabolic stability. To be noted: 0.2 mg/mL HLM, 0.1 μM test substance, 15 minutes at 37° C., with vs without NADPH production. In kind it is in vitro ADME, human. On the procedure:
A test substance was dissolved in DMSO so that the concentration of the resultant solution became 20 mM, and the solution was diluted with DMSO so that the concentration of the resultant solution became 1 mM. The metabolic stability of the test substance was evaluated using a human liver microsome (HLM) in which human liver was pooled. An assay buffer solution contained 0.2 mg/mL of HLM, a 0.1 M of phosphate potassium buffer solution (pH 7.4), 0.1 mM of EDTA, 0.33 mM of NADP+, 8 mM of glucose-6-phosphate, 0.1 U/mL of glucose-6-phosphate dehydrogenase, 6 mM of MgCl2, 0.1 μM of a test substance (final concentration in DMSO: 0.01%) in 0.15 mL of the final incubation volume. Fifteen minutes after the initiation of the reaction at 37° C., 0.15 mL of a acetonitrile/methanol mixed solution (7:3, by volume) was added to the solution to terminate the reaction. After centrifugation, the resultant supernatant was analyzed by LC-MSMS, peak areas were compared under the presence or absence of the production of NADPH, and the residual ratio of the test substance was calculated.

Data set [2] in a line: PAMPA test (parallel artificial membrane permeability assay). Type of data set: in vitro ADME. To be noted: phosphate buffer pH 6.8, about 200 μM, about 5 hours, room temperature, read-out: Test Example 4 membrane permeation coefficient Pe. On the procedure: A test solution (see below) was stirred while shaking at room temperature for about 5 hours using a 96-well PAMPA plate (BD Biosciences) in which a lipid had been precoated onto a polyvinylidene fluoride (PVDF) film to evaluate the membrane permeation coefficient Pe (cm/s) of each compound dissolved in the test solution (concentration: about 200 μM) upon the transport of the compound from a donor side to an acceptor side through a lipid membrane. The Pe value was calculated in accordance with equations 1 and 2, and the concentration of the compound on the donor side and the acceptor side was measured by a HPLC-UV method. In 0.3 mL of the test solution on the donor side is contained about 1% (v/v) of DMSO, since 3 μL of a DMSO solution containing the compound at a concentration of 20 mM was added to the test solution.
Test solution: a phosphate buffer solution having a pH value of 6.8 (90 mM of phosphate, 48 mM of NaCl, 5.4 mM of KCl)
Conditions for stirring: a multishaker MS-300 (AS ONE Corporation), 350 rpm
[formula] CD(t): compound concentration in donor well at time t CA(t): compound concentration in acceptor well at time t VD: donor well volume (0.3 mL) VA: acceptor well volume (0.2 mL) A: filter area (0.3 cm^2)
(PAMPA measures passive passage across an artificial lipid membrane.)

The nature of data set [3]: Evaluation of solubility (DMSO stock into PBS, HPLC-UV). Type of data set: physicochemical. To be noted: Dulbecco's phosphate-buffered saline pH 7, room temperature, about 15 minutes shaking, values greater than 200 μM regarded as 200 μM, read-out: Test Example 3 solubility. On the procedure:
To 0.25 mL of a test solution a mentioned below was added 2.5 μL of a DMSO solution having a compound concentration of 20 mM. The resultant solution was shaken at room temperature for about 15 minutes (the conditions for the shaking are mentioned below). Subsequently, a supernatant was collected by a suction filtration under a reduced pressure. A DMSO solution having a compound concentration of 200 μM was used as a standard solution, and the concentration of a compound in a filtrate which was quantified by a HPLC-UV method was employed as a solubility (rounded off to the whole number). In this evaluation, since a value 200 μM became the upper limit operationally, all of quantification values greater than 200 μM were regarded as 200 μM.
Test solution: GIBCO (registered trade name) Dulbecco's phosphate-buffered saline (pH 7, Life Technologies Corporation)
Conditions for shaking: a microplate shaker N-704 (Nissinrika Corporation), speed 6

The mark [4] stands for this setting: aqueous buffer, kinetic from dmso stock.

Converted amounts (≈) assume the structure as drawn. Like-named read-outs stand apart in the source and are kept apart here.

Consider `C=CCN1CC(=O)N2[C@@H](Cc3ccc(O)cc3F)C(=O)N(Cc3cccc(N4CC(N5CCN(C)[C@@H](C)C5)C4)n3)C[C@@H]2N1C(=O)NCc1ccccc1` [Example 4, (6S,9aS)-N-Benzyl-8-((6-(3-((3S)-3,4-dimethylpiperazin-1-yl)azetidin-1-yl)pyridin-2-yl)methyl)-6-((2-fluoro-4-hydroxyphenyl)methyl)-4,7-dioxo-2-(prop-2-en-1-yl)-octahydro-1H-pyrazino[2,1-c][1,2,4]triazine-1-carboxamide], for which the IC50 in the data set on Wnt signal was 60 nM. In data set [1], the “Test Example 2 residual ratio of the test substance” value (shortened to “Test Example 2 residual ratio”) came to 44%. For the same compound, in data set [2], the Papp stood at 2.03 ×10⁻⁶ cm/s. The solubility in data set [3] (setting [4]) worked out at 199 µM (≈ 144 µg/mL).

Take `C=CCN1CC(=O)N2[C@@H](Cc3ccc(O)cc3)C(=O)N(Cc3cccc(N4CC(N5CCN(C)[C@H](C)C5)C4)n3)C[C@@H]2N1C(=O)NCc1ccccc1` [Example 28, (6S,9aS)-N-Benzyl-8-((6-(3-((3R)-3,4-dimethylpiperazin-1-yl)azetidin-1-yl)pyridin-2-yl)methyl)-6-((4-hydroxyphenyl)methyl)-4,7-dioxo-2-(prop-2-en-1-yl)-octahydro-1H-pyrazino[2,1-c][1,2,4]triazine-1-carboxamide]: the IC50 in the data set on Wnt signal turned out to be 380 nM. Besides, in data set [1], the “Test Example 2 residual ratio” value came to 55%. Moreover, in data set [2], the Papp stood at 0.95 ×10⁻⁶ cm/s. Also, the solubility in data set [3] (setting [4]) was found to be 198 µM (≈ 140 µg/mL).

For the compound `C=CCN1CC(=O)N2[C@@H](Cc3ccc(O)cc3F)C(=O)N(Cc3cccc(N4CC(N5CCN(C(C)C)CC5)C4)n3)C[C@@H]2N1C(=O)NCc1ccccc1` [Example 11, (6S,9aS)-N-Benzyl-6-((2-fluoro-4-hydroxyphenyl)methyl)-4,7-dioxo-2-(prop-2-en-1-yl)-8-((6-(3-(4-(propan-2-yl)piperazin-1-yl)azetidin-1-yl)pyridin-2-yl)methyl)-octahydro-1H-pyrazino[2,1-c][1,2,4]triazine-1-carboxamide], the IC50 with Wnt signal worked out at 39 nM. Further, the “Test Example 2 residual ratio” value in data set [1] was determined as 26%. In addition, the Papp in data set [2] was 2.55 ×10⁻⁶ cm/s. Further, the solubility in data set [3] (setting [4]) turned out to be 192 µM (≈ 142 µg/mL).

With `C=CCN1CC(=O)N2[C@@H](Cc3c(F)cc(O)cc3F)C(=O)N(Cc3cccc(N4CC(N5CCN(C)C[C@@H]5C)C4)n3)C[C@@H]2N1C(=O)NCc1ccccc1` [Example 17, (6S,9aS)-N-Benzyl-6-((2,6-difluoro-4-hydroxyphenyl)methyl)-8-((6-(3-((2S)-2,4-dimethylpiperazin-1-yl)azetidin-1-yl)pyridin-2-yl)methyl)-4,7-dioxo-2-(prop-2-en-1-yl)-octahydro-1H-pyrazino[2,1-c][1,2,4]triazine-1-carboxamide], the IC50 in the data set with Wnt signal is 210 nM. For the same compound, the “Test Example 2 residual ratio” value in data set [1] is given as 60%. Moreover, the Papp in data set [2] was found to be 0.89 ×10⁻⁶ cm/s. For the same compound, the solubility in data set [3] (setting [4]) stood at 195 µM (≈ 145 µg/mL).

Turning to `C=CCN1CC(=O)N2[C@@H](Cc3c(F)cc(O)cc3F)C(=O)N(Cc3cccc(N4CC(N5CCN(C)[C@@H](C)C5)C4)n3)C[C@@H]2N1C(=O)NCc1ccccc1` [Example 16, (6S,9aS)-N-Benzyl-6-((2,6-difluoro-4-hydroxyphenyl)methyl)-8-((6-(3-((3S)-3,4-dimethylpiperazin-1-yl)azetidin-1-yl)pyridin-2-yl)methyl)-4,7-dioxo-2-(prop-2-en-1-yl)-octahydro-1H-pyrazino[2,1-c][1,2,4]triazine-1-carboxamide], the IC50 with Wnt signal was 220 nM. Further, the “Test Example 2 residual ratio” value in data set [1] is 63%. Also, the Papp in data set [2] was found to be 0.51 ×10⁻⁶ cm/s. In data set [3] (setting [4]), the solubility is 197 µM (≈ 147 µg/mL).

As for `C=CCN1CC(=O)N2[C@@H](Cc3ccc(O)cc3)C(=O)N(Cc3ccc(F)c(N4CC(N5CCN(C)[C@H](C)C5)C4)n3)C[C@@H]2N1C(=O)NCc1ccccc1` [Example 24, (6S,9aS)-N-Benzyl-8-((6-(3-((3R)-3,4-dimethylpiperazin-1-yl)azetidine-1-yl)-5-fluoropyridin-2-yl)methyl)-6-((4-hydroxyphenyl)methyl)-4,7-dioxo-2-(prop-2-en-1-yl)-octahydro-1H-pyrazino[2,1-c][1,2,4]triazine-1-carboxamide], the IC50 with Wnt signal was 77 nM. Besides, the “Test Example 2 residual ratio” value in data set [1] stood at 26%. In data set [2], the Papp is 1.91 ×10⁻⁶ cm/s. For the same compound, the solubility in data set [3] is 200 µM (≈ 145 µg/mL).

`C=CCN1CC(=O)N2[C@@H](Cc3ccc(O)cc3)C(=O)N(Cc3cccc(N4CC(N5CCN(C(C)C)CC5)C4)n3)C[C@@H]2N1C(=O)NCc1ccccc1` [Example 9, (6S,9aS)-N-Benzyl-6-((4-hydroxyphenyl)methyl)-4,7-dioxo-2-(prop-2-en-1-yl)-8-((6-(3-(4-(propan-2-yl)piperazin-1-yl)azetidin-1-yl)pyridin-2-yl)methyl)-octahydro-1H-pyrazino[2,1-c][1,2,4]triazine-1-carboxamide]: the IC50 in the data set with Wnt signal came to 150 nM. The “Test Example 2 residual ratio” value in data set [1] stood at 34%. For the same compound, the Papp in data set [2] amounted to 1.38 ×10⁻⁶ cm/s. Besides, the solubility in data set [3] (setting [4]) stood at 194 µM (≈ 140 µg/mL).

With `C=CCN1CC(=O)N2[C@@H](Cc3ccc(O)cc3)C(=O)N(Cc3cccc(N4CC(N5CCN(C)CC5)C4)n3)C[C@@H]2N1C(=O)NCc1ccccc1` [Example 29, (6S,9aS)-N-Benzyl-6-((4-hydroxyphenyl)methyl)-8-((6-(3-(4-methylpiperazin-1-yl)azetidin-1-yl)pyridin-2-yl)methyl)-4,7-dioxo-2-(prop-2-en-1-yl)-octahydro-1H-pyrazino[2,1-c][1,2,4]triazine-1-carboxamide], in the data set on Wnt signal, the IC50 was 470 nM. In addition, the “Test Example 2 residual ratio” value in data set [1] is recorded as 63%. In addition, in data set [3], the solubility is recorded as 200 µM (≈ 139 µg/mL).

A word on the solubility: it is the concentration that dissolves in the medium under given conditions.

(Values after patent US9174998B2, “(6S,9aS)-N-benzyl-6-[(4-hydroxyphenyl)methyl]-4,7-dioxo-8-({6-[3-(piperazin-1-yl)azetidin-1-yl]pyridin-2-yl}methyl)-2-(prop-2-en-1-yl)-octahydro-1H-pyrazino[2,1-c][1,2,4]triazine-1-carboxamide compound” (Eisai R&D Management Co., Ltd., priority 2013, dated 2015).)
